Measured values as given in patent US20240293384A1, “METHODS AND COMPOSITIONS FOR TREATMENT OF COVID-19” (priority 2021, published 2024).

Legend:
SARS-CoV-2 [1] = type: cell-based, SARS-CoV-2 (Seattle strain)
tubulin network = experiment: mRNA sequencing and IPA analysis of SARS-CoV-2-infected neurons; type: cell-based, human; settings: neurons infected with virus for 24 hours, treated vs vehicle (DMSO)
SARS-CoV-2 [2] = type: cell-based
Calu3 cells = experiment: RNAseq of infected Calu3 cells, DEG reversal z-score analysis; type: cell-based, human; settings: overlapping genes with FDR<10%

| Structure (SMILES) | SARS-CoV-2 levels determined by qPCR for Spike mRNA (SARS-CoV-2 [1]) | expression of tubulins in mRNAseq (IPA Coronavirus Replication Pathway) (tubulin network) | viral RNA levels (qPCR, Spike RNA) (SARS-CoV-2 [2]) | restoration of gene expression of infected cells to uninfected levels (log 2 fold change z-scores) (Calu3 cells) |
| --- | --- | --- | --- | --- |
| O=[N+]([O-])c1ccc(Sc2nnc(COc3ccccc3)n2-c2ccccc2)nc1 [MIND4-17, 5-Nitro-2-{[5-(phenoxymethyl)-4-phenyl-4H-1,2,4-triazol-3-yl]thio}pyridine] | dramatic reduction in Spike transcripts | downregulated |  |  |
| O=[N+]([O-])c1ccc(Sc2nnc(COc3ccccc3)n2-c2ccccc2)c2ncccc12 [MIND4] |  |  | dramatic reduction in viral RNA levels | significant restoration back to uninfected state |
